Experimental data taken from patent US20110195153A1, “Nutritional Formulation Comprising A Cows Milk Peptide Containing Hydrolysate And Or Peptides Derived Thereof For Tolerance Induction” (MEAD JOHNSON NUTRITION COMPANY, priority 2009, published 2011).
“And” between values parts separate entries of the source, which are not always exact repeats. Identical values can stand only once.

Tested on: T-cells
Experiment: Tolerance induction experiment: T-cell fraction preincubated, combined with APCs and re-stimulated
Format: cell-based, human
Details: for mean cpm / cpm / SI: individual KF1; for cpm: individual experiments; for proliferation of T-cells when re-stimulated with cow's milk protein after preincubation with the substance: re-stimulated with whey protein concentrate VTP14 or rαS1-casein, in words
Method: For the tolerance induction experiment, PBMCs from healthy donors were isolated by Ficoll-density gradient, and the cells were further separated into two fractions. T-cells were enriched with a human Pan-T-cell isolation Kit (Miltenyi, Bergisch Gladbach, Germany), whereas antigen-presenting cells were enriched with human CD3 MicroBeads (Miltenyi, Bergisch Gladbach, Germany) by magnetic cell sorting.
The cell fractions containing the T-cells were incubated overnight with different peptides or medium alone at 37° C. with 5% CO2 and 95% humidity, the antigen-presenting-cell fractions were kept overnight at the same conditions without any antigens. On the next day, the T-cell fractions were washed with DPBS (GIBCO) three times and the T-cell and antigen-presenting-cell fractions were combined. The cells (2×10^5 cells per well) were cultured in triplicates in 96-well plates as described above. […] The analysis was done as described for the lymphoproliferative assays.
T-cell fractions were preincubated over night with high amounts of Nutramigen™ base (VTP11), extensive casein hydrolysate (VTP15), whole cow's milk whey protein (VTP14), Nutramigen™ (VTP3), synthetic peptides ([…], Phl p 5-Pep 1) or buffer (UCO). On the next day the T-cells and the APCs were combined and stimulated with milk samples (VTP14, VTP1). T cell stimulation is given either in counts per minute (cpm) or as stimulation index (SI).

[1] = T-cells tolerized with the substance, stimulated with UCO
[2] = tolerized with the substance, stimulated with IL-2
[3] = tolerized with the substance, stimulated with VTP1, first line
[4] = tolerized with the substance, stimulated with VTP1, second line
[5] = tolerized with the substance, stimulated with VTP14, first line
[6] = tolerized with the substance, stimulated with VTP14, second line

Sequence	mean cpm [1]	SI [2]	mean cpm [2]	SI [3]	mean cpm [3]	SI [4]	mean cpm [4]	SI [5]	mean cpm [5]	SI [6]	mean cpm [6]	proliferation of T-cells when re-stimulated with cow's milk protein after preincubation with the substance	further results
CGAASNKAFAEGLSGEPKGAAESSSKAALTSK (Phleum pratense) [Phl P5-peptide 1, control peptide, grass pollen allergen]	12522 cpm	1.2	14724 cpm	0.3	4295 cpm	0.5	6355 cpm	3.4	41970 cpm	0.2	2336 cpm		cpm (T-cells tolerized with the substance, stimulated with UCO, listed as Ph1 p 5-Pep 1): 11263 cpm and 13457 cpm and 12846 cpm; cpm (tolerized with the substance, stimulated with IL-2, listed as Ph1 p 5-Pep 1): 14153 cpm and 17806 cpm and 12214 cpm; cpm (tolerized with the substance, stimulated with VTP1, first line, listed as Ph1 p 5-Pep 1): 4708 cpm and 3278 cpm and 4898 cpm; cpm (tolerized with the substance, stimulated with VTP1, second line, listed as Ph1 p 5-Pep 1): 6315 cpm and 6342 cpm and 6409 cpm; cpm (tolerized with the substance, stimulated with VTP14, first line, listed as Ph1 p 5-Pep 1): 38430 cpm and 45751 cpm and 41730 cpm; cpm (tolerized with the substance, stimulated with VTP14, second line, listed as Ph1 p 5-Pep 1): 3282 cpm and 2244 cpm and 1482 cpm
CLKKYKVPQLEIVPNSAEERLHSMKEGIHAQQKE (listed as Bos taurus) [Cas4]	16151 cpm	0.9	14533 cpm	0.4	6304 cpm	0.4	6621 cpm	1.3	20794 cpm	0.2	3747 cpm	suppress the proliferation of T-cells	cpm (T-cells tolerized with the substance, stimulated with UCO, listed as αS2-PEP 4): 17694 cpm and 14608 cpm; cpm (tolerized with the substance, stimulated with IL-2, listed as αS2-PEP 4): 12704 cpm and 19463 cpm and 11433 cpm; cpm (tolerized with the substance, stimulated with VTP1, first line, listed as αS2-PEP 4): 6381 cpm and 6304 cpm and 6226 cpm; cpm (tolerized with the substance, stimulated with VTP1, second line, listed as αS2-PEP 4): 8231 cpm and 8478 cpm and 3154 cpm; cpm (tolerized with the substance, stimulated with VTP14, first line, listed as αS2-PEP 4): 16162 cpm and 25246 cpm; cpm (tolerized with the substance, stimulated with VTP14, second line, listed as αS2-PEP 4): 2790 cpm and 4703 cpm
ISSSEEIVPNSVEQKHIQKEDVPSERYLGYEQLLRC (listed as Bos taurus) [Cas3]												suppress the proliferation of T-cells	proliferation of T-cells when re-stimulated with cow's milk protein after preincubation with the substance (listed as alphaS1-casein-derived peptide 3): suppressed the proliferation
